Laboratory results published in patent publication US20240148679A1, “METHODS AND COMPOSITIONS RELATED TO TREATMENT AND PREVENTION OF CANCER BY INHIBITION OF DGAT1 AND DGAT2” (Ohio State Innovation Foundation, priority 2019, published 2024).
“Also recorded” adds a separate entry of the source.

Assays:
GBM cells (U251) = experiment: Mitochondrial morphology (TEM, MitoTracker Red); type: cell-based, human; conditions: inhibitor 24 hours
Protocol: (A, B) Transmission electron microscopy (TEM) analysis of the mitochondrial morphology in GBM cells (U251) treated with the DGAT1 inhibitor A-922500 (20 μg/ml) or DGAT2 inhibitor PF-06424439 (20 μg/ml) for 24 hr and shown in a or infected with shRNA-expressing lentivirus against DGAT1 for 48 hr and shown in b. Scale bar, 500 nm. Mitochondria are indicated by red arrows. Mitochondria length and loss of cristae (%) were quantified by ImageJ over 100 mitochondria in each group (mean±SEM). Statistical significance was determined by one-way ANOVA. * P<0.0001. (C, D) Representative fluorescence images of LDs (green) and mitochondria (red) in U251 cells treated with DGAT1 or DGAT2 inhibitor and shown in c or shRNA in (D) as in panels (A, B). […] The percentage of cells with tubular or fragmented mitochondria was quantified by ImageJ in more than 100 cells (mean±SEM). Statistical significance was determined by one-way ANOVA. * P<0.001. […] Lower panels show the quantification of relative basal and maximal OCR change (details please see Methods). […] Basal OCR was determined as OCR before oligomycin subtract OCR after rotenone addition, and maximal OCR was determined as OCR after FCCP subtract OCR after rotenone addition. Statistical significance was determined by one-way ANOVA. * P<0.0001. […] ROS were detected with CellROX Deep Red, and mitochondria were stained with MitoTracker Green. […]

[1] = Toxicity in treated mice (H&E of organs, body weight); type: in vivo; conditions: 120 mg/kg/day; for toxic effects in mouse liver, kidney and spleen (H&E staining): 13 days
Protocol: (A) The H&E staining of the liver, kidney and spleen of mice treated with the DGAT1 inhibitor A922500 (120 mg/kg/day, oral gavage) for 13 days. Scale bar, 50 μm. (B) The body weight of mice treated with vehicle or DGAT1 inhibitor A-922500 (120 mg/kg/day, oral gavage) for 13 days. The mice with DGAT1i treatment lost 8% weight at day 13 treatment compared with the mice weight at day 1.
Paraffin tissue sections were deparaffinized in xylene and rehydrated in degraded ethanol (100%, 95% and 70% ethanol), respectively. After washing with dH2O, slides were stained with hematoxylin and eosin solution in sequence followed by washing with dH2O. Then slides were dehydrated in degraded ethanol and immersed in xylene followed by mounting in Permount.
Intracranial xenograft models were generated using female athymic nude (NCr-nu/nu) mice (6-8 weeks of age obtained from OSU Target Validation Shared Resource). U87EGFRvIII (1×10^6) cells infected with shDGAT1-, shDGAT2- or scramble shRNA-expressing lentivirus for 48 hr (suspended in 100 μl PBS) were implanted into mice flank to generate subcutaneous model. For intracranial xenograft model, U87EGFRvIII-luc (1×10^5) or GBM30-luc (1×10^5) cells infected with shDGAT1-, shDGAT2- or scramble shRNA-expressing lentivirus for 48 hours (suspended in 5 μl PBS) were implanted into mouse brains. Mice were observed until they became moribund, at which point they were sacrificed. For drug treatment, U87EGFRvIII (1×10^6 cells suspended in 100 μl PBS) or GBM30 cells (4×10^6 suspended in 100 μl PBS and then mixed with 100 μl matrigel) were implanted in mouse flanks. DGAT1 inhibitor A-922500 (120 mg/kg/day, oral gavage) was formulated by 1% Tween 80 in PBS and administrated to mice when tumor size reached approximately 80 mm^3.

In the case of O=C(Nc1ccccc1)Nc1ccc(-c2ccc(C(=O)[C@@H]3CCC[C@H]3C(=O)O)cc2)cc1 [A-922500], the structure of mitochondria (GBM cells (U251)) is reported as “severely disrupted”, the mice weight decrease ([1]; after 13 days, in comparison with vehicle control group) is reported as “about 8%” and the “toxicity in treated mice (overall)” value ([1]; oral gavage) is reported as “does not induce noticeable toxic effects; also recorded: no obvious toxicity was observed”. For the same molecule, the “toxic effects in mouse liver, kidney and spleen (H&E staining)” value ([1]; oral gavage) was “did not observe any toxic effects”, the “toxic effects in mouse liver, kidney and spleen (H&E staining)” value ([1]; oral gavage, listed as A922500) was “no obvious toxic effects” and the body weight loss ([1]; oral gavage, day 13 compared with day 1) was 8%.
